# Where “and” joins values, the source holds several entries; their conditions need not be identical. Identical values can stand only once. Inconclusive results and toxic doses are left out.
# Tested on: L1210 leukemia ip in BDF1 mice, survival T/C
# Test: NCI In Vivo Anticancer Drug Screen. Data for tumor model L1210 Leukemia (intraperitoneal) in B6D2F1 (BDF1) mice
# Conditions: endpoint: mean survival time, higher = longer survival
# Outline: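 Survival endpoint. Drug-treated group vs vehicle group, expressed as T divided by C. Tumor passaged by transplantation.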
# [1] = dose: 100.0 mg/kg/injection, schedule: Q04DX003 (ip), vehicle: Klucel (hydroxypropylcellulose) (HPC)
# [2] = dose: 200.0 mg/kg/injection, schedule: Q04DX003 (ip), vehicle: Klucel (hydroxypropylcellulose) (HPC)
# [3] = dose: 400.0 mg/kg/injection, schedule: Q04DX003 (ip), vehicle: Klucel (hydroxypropylcellulose) (HPC)
smiles,measurement,setting,value
OCC1C(CO)C2(Cl)C(Cl)=C(Cl)C1(Cl)C2(Cl)Cl (configuration not stated),T/C,"dose: 100.0 mg/kg/injection, schedule: Q01DX009 (ip), vehicle: Klucel (hydroxypropylcellulose) (HPC)",90 % of control
same,T/C,"dose: 100.0 mg/kg/injection, schedule: Q04DX003 (ip), vehicle: saline",94 % of control
same,T/C,"dose: 200.0 mg/kg/injection, schedule: Q01DX009 (ip), vehicle: Klucel (hydroxypropylcellulose) (HPC)",100 % of control
same,T/C,"dose: 200.0 mg/kg/injection, schedule: Q04DX003 (ip), vehicle: saline",101 % of control
same,T/C,"dose: 400.0 mg/kg/injection, schedule: Q01DX009 (ip), vehicle: Klucel (hydroxypropylcellulose) (HPC)",111 % of control
same,T/C,"dose: 400.0 mg/kg/injection, schedule: Q04DX003 (ip), vehicle: saline",99 % of control
Nc1cccc(CNC(=O)COc2ccc(Cl)cc2C(=O)O)c1,T/C,"dose: 100.0 mg/kg/injection, schedule: Q01DX001 (ip), vehicle: saline with Tween-80",98 % of control
same,T/C,"dose: 200.0 mg/kg/injection, schedule: Q01DX001 (ip), vehicle: saline with Tween-80",95 % of control
same,T/C,"dose: 400.0 mg/kg/injection, schedule: Q01DX001 (ip), vehicle: saline with Tween-80",103 % of control
COC(=O)c1c(OC)ccc2c1CC1C3Nc4ccccc4C3CCN1C2 (configuration not stated),T/C,[1],94 % of control
same,T/C,[2],90 % of control
same,T/C,[3],90 % of control
CC(C)CC(=O)CC(O)C(Cl)(Cl)Cl (configuration not stated),T/C,"dose: 50.0 mg/kg/injection, schedule: Q04DX002 (ip), vehicle: Klucel (hydroxypropylcellulose) (HPC)",104 % of control
same,T/C,"dose: 100.0 mg/kg/injection, schedule: Q04DX002 (ip), vehicle: Klucel (hydroxypropylcellulose) (HPC)",93 % of control
same,T/C,"dose: 200.0 mg/kg/injection, schedule: Q04DX002 (ip), vehicle: Klucel (hydroxypropylcellulose) (HPC)",93 % of control
same,T/C,"dose: 400.0 mg/kg/injection, schedule: Q04DX002 (ip), vehicle: Klucel (hydroxypropylcellulose) (HPC)",101 % of control
CCC[CH2][Sn]1([CH2]CCC)[O]OC(c2ccc(C(=O)OCC)cc2)[O]1 (configuration not stated),T/C,"dose: 6.25 mg/kg/injection, schedule: Q04DX002 (ip), vehicle: other",102 % of control
O=C(CCl)Nc1cc2ccccc2c2ccccc12,T/C,"dose: 75.0 mg/kg/injection, schedule: Q01DX001 (ip), vehicle: saline",88 % of control
same,T/C,"dose: 150.0 mg/kg/injection, schedule: Q01DX001 (ip), vehicle: saline",91 % of control
same,T/C,"dose: 300.0 mg/kg/injection, schedule: Q01DX001 (ip), vehicle: saline",96 % of control
Fc1cccc(CSc2ncnc3nc[nH]c23)c1,T/C,"dose: 12.5 mg/kg/injection, schedule: Q01DX009 (ip), vehicle: saline",104 % of control
same,T/C,"dose: 25.0 mg/kg/injection, schedule: Q01DX009 (ip), vehicle: saline",119 % of control
same,T/C,"dose: 50.0 mg/kg/injection, schedule: Q01DX009 (ip), vehicle: saline",120 % of control
same,T/C,"dose: 175.0 mg/kg/injection, schedule: Q01DX001 (ip), vehicle: saline",105 % of control and 116 % of control
same,T/C,"dose: 265.0 mg/kg/injection, schedule: Q01DX001 (ip), vehicle: saline",115 % of control
same,T/C,"dose: 400.0 mg/kg/injection, schedule: Q01DX001 (ip), vehicle: saline",119 % of control
Cc1ccc(S(=O)(=O)N/N=C/Cc2ccccc2)cc1,T/C,"dose: 100.0 mg/kg/injection, schedule: Q04DX002 (ip), vehicle: gum acacia",100 % of control
same,T/C,"dose: 200.0 mg/kg/injection, schedule: Q04DX002 (ip), vehicle: gum acacia",100 % of control
same,T/C,"dose: 400.0 mg/kg/injection, schedule: Q04DX002 (ip), vehicle: gum acacia",100 % of control
CCC(C)P(=O)(N1CC1)N1CC1 (configuration not stated),T/C,"dose: 2.0 mg/kg/injection, schedule: Q01DX015 (ip), vehicle: carboxymethylcellulose (CMC)",100 % of control
same,T/C,"dose: 4.0 mg/kg/injection, schedule: Q01DX015 (ip), vehicle: carboxymethylcellulose (CMC)",103 % of control
same,T/C,"dose: 8.0 mg/kg/injection, schedule: Q01DX015 (ip), vehicle: carboxymethylcellulose (CMC)",105 % of control
same,T/C,"dose: 16.0 mg/kg/injection, schedule: Q01DX015 (ip), vehicle: carboxymethylcellulose (CMC)",121 % of control
same,T/C,"dose: 32.0 mg/kg/injection, schedule: Q01DX015 (ip), vehicle: carboxymethylcellulose (CMC)",183 % of control
CCCCCCCCCCCC(=O)NC(=S)Nc1ccccc1OCC,T/C,[1],89 % of control
same,T/C,[2],90 % of control
same,T/C,[3],89 % of control

# — PubChem BioAssay AID248 (DTP/NCI, 2004)
